In patent US12115248B2, “Devices and methods for delivering methane inhibiting compounds to animals” (Ruminant Biotech Corp Limited, priority 2022, dated 2024):
“And” between values parts separate entries of the source, which are not always exact repeats. Equal values may be shown once. “Also recorded” adds a separate entry of the source. Read-outs that look alike come from different tables or passages of the source. Marks after values point to notes of the source that are not given here.

Legend:
[1] = rats; cited from earlier work
methane emissions [2] = test: Animal study (Example 3): gas emissions in respiration chambers; format: in vivo, dairy beef heifers
Method: An animal study was conducted to determine methane emissions from an animal implanted with a bolus of the disclosure. The experiment was designed as an unbalanced, completely randomized design with three treatments and three repeated measurements over time in three periods 8 to 12 weeks apart.
Nineteen dairy beef heifers (312±14 kg live weight), including three spare animals, were selected from a mob of 50 based on behaviour traits and liveweight from a research farm in the Manawatu, New Zealand. They were assigned to one of three treatments: a bolus containing no bromoform (CONTROL; n=4); a bolus releasing bromoform at a rate of about 300-400 mg/day (LOW, n=6); or a bolus releasing about 450-580 mg/day (HIGH, n=6). SmaXtec boluses were administered at the same time to monitor rumen temperature as an animal health monitor and to complement the weekly blood samples.
The heifers were transported from research farm to a testing centre for diet adaptation and gas measurements using respiration chambers. The heifers were adapted to the environment of the cattle yards and the fresh cut pasture for 7 days before receiving their allocated treatment bolus. Gas measurements started 13 days after the boluses were administrated. Each heifer was in the respiration chambers for 48 hours during the period of gas measurements, which took two weeks for four measurement groups. At the end of the measurements in respiration chambers, the animals were transported back to research farm.
Fermentation gases methane (CH4), carbon dioxide (CO2) and hydrogen (H2) were quantified in four open-circuit respiration chambers at the New Zealand Ruminant Methane Measurement Centre (AgResearch, Palmerston North, New Zealand). Each chamber is 15.4 m^3 (3.5 m long×2 m wide×2.2 m high) with an air flow rate of around 1.0 m^3/min, which was continuously monitored by measuring differential pressure using a Venturi flowmeter. Temperature inside respiration chambers was approximately 20° C. and the relative humidity was on average approximately 79%. All gases were measured at ˜2.8-min intervals using a 4900C Continuous Emission analyser (Servomex Group Ltd, East Sussex, UK) and daily production of each gas was calculated from the difference between concentration flowing in- and out of the chamber (Pinares-Patiño et al., 2012). Respiration chambers were opened twice daily (˜20 min each time) for cleaning, feeding, faecal sampling and feed refusal collection. No measurements were performed during the period when chambers were opened, and missing data were interpolated by taking the average of the last 12 values ([…]) before the doors were opened.
Data from the first period of gas measurements was analysed using the ‘predictmeans’ and ‘Ime4’ packages in the statistical software R 4.0.3 (R Core Team, 2020). Data for dry matter intake and gas emissions for each heifer were averaged across the two measurement days. Heifer served as the experimental unit. The mixed model included treatment as fixed effect and respiration chamber nested in measurement group as random effect.

[3] = in vivo; cited from earlier work
[4] = Preliminary field trial (Example 14): dry matter intake, liveweight, blood samples; format: in vivo, heifers
Method: (§1) Liveweights of the animals were recorded prior to the first bolus administration and following each measurement period. Gas production of methane, hydrogen, and carbon dioxide was assessed every 3 min over a 48-hour period in respiration chambers using a 4900C Continuous Emission Analyser. […] Rumen fluid contents were sampled prior to bolus administration and following measurement periods in the respiration chambers. Rumen samples were assessed for pH and short-chain fatty acids (SCFAs) content, and were stored for bromoform residue analysis later on. Blood samples were collected 16 days prior to bolus administration, and on days 34 and 94 following the measurement periods. Blood samples were assessed biochemical constitution and for liver enzymes.
The data are combined for both feed types during measurement session 2. […]

[5] = after 48 hour with holding period; cited from earlier work
[6] = mice; cited from earlier work
methane emissions [7] = test: Preliminary field trial (Example 14): gas emission measurements in respiration chambers; format: in vivo, heifers
Method: The following preliminary field trial is an example of the methane inhibiting capabilities of the bolus invention in a live animal trial using recognised methane analysis techniques. The bolus used in the trial is outlined in Table 14 and the trial time schedule is outlined in Table 16.
Five different total bromoform doses across two different diets were tested, giving a total of ten treatments (Table 15). […] Within each dose group, half of the animals were fed baleage (baled cut and covered pasture), and the other half were adapted to a diet of fresh cut ryegrass (New Zealand fresh pasture). Boluses were washed prior to administration to remove any bromoform that may have accumulated on the outside of the bolus. The additional boluses were administered on day 69 per os. (oesophagus). The second measurement session began 10 days after said bolus administration, with animals entering the respiration chambers for a 48-hour period in groups of four.
as §1
Emissions of methane (CH4), hydrogen (H2) and carbon dioxide (CO2) were assessed in respiration chambers over 48 hour measurements and converted to a per-day-total. […] The data are combined for both feeds during measurement session 2 (cf. schedule table 16). P-values were calculated by single-factor ANOVA and differences were deemed particularly significant for p-value <0.05.

[8] = 260 mg/d (HIGH + 156), period 2

## BrC(Br)Br [bromoform]
[1]
  half-life in animals: 0.8 h
Methane emissions [2]; HIGH, 450 mg/d
  H2: 20.08^a g/d
Methane emissions [2]; HIGH, about 450-580 mg/day
  CH4 production (g/day) decrease compared with CONTROL: more than 99%
  CH4 yield (g/kg dry matter intake) decrease compared with CONTROL: more than 99%
Methane emissions [2]; LOW, 300 mg/d
  H2: 20.60^a g/d
Methane emissions [2]; LOW, about 300-400 mg/day
  CH4 production (g/day) decrease compared with CONTROL: more than 99%
  CH4 yield (g/kg dry matter intake) decrease compared with CONTROL: more than 99%
[3]
  level in milk: no significant increase
[4]; 156 mg/d (CON + 156)
  Average animal liveweight: 380 kg
[4]; 182 mg/d (LOW+156)
  Average animal liveweight: 387 kg
[4]; 208 mg/d (MED + 156)
  Average animal liveweight: 376 kg
[4]; 260 mg/d (HIGH + 156)
  Average animal liveweight: 369 kg
[4]; all tested doses
  Dry matter intake: not significantly different; also recorded: not significantly altered
[4]; in vivo
  Animal liveweight, treated versus untreated control: about the same
  blood data, treated versus untreated control: No differences
[4]; treatment group CON + 156
  Average dry matter intake: 5.54 kg/day
[4]; treatment group HIGH
  Average dry matter intake: 5.54 kg/day
[4]; treatment group HIGH + 260
  Average dry matter intake: 4.47 kg/day
[4]; treatment group LOW + 182
  Average dry matter intake: 5.15 kg/day
[4]; treatment group LOW, both feeds, session 2
  Average dry matter intake: 5.11 kg/day
[4]; treatment group MED
  Average dry matter intake: 5.72 kg/day
[4]; treatment group MED + 208
  Average dry matter intake: 3.86 kg/day
[5]
  residues in meat and tissue from slaughtered steers: no residues
[6]
  half-life in animals: 1.2 h
Methane emissions [7]; 156 mg/d (CON + 156), period 2
  CO2: 5666 ± 327 g/day
  H2: 7.9 ± 3.5 g/day
Methane emissions [7]; 156 mg/d (CON + 156), period 2, all animals, average ± standard error
  CH4: 48.7 ± 29.5 g/day
Methane emissions [7]; 156 mg/day dose group (CON+156)
  methane emissions of individual animals: about 0.2 g/d and ~0 g/d and 76 g/d
Methane emissions [7]; 156 mg/day, one animal with partial knockdown
  methane emissions as % of the average of the untreated control group: approximately 50%
Methane emissions [7]; 182 mg/d (LOW + 156), period 2
  CH4: 18.6 ± 18.2 g/day
  CO2: 5589 ± 295 g/day
  H2: 13.7 ± 4.7 g/day
Methane emissions [7]; 182 mg/d (LOW+156)
  methane inhibition, animals responding: full methane inhibition was observed for three of the four treated animals; also recorded: Partial inhibition was observed for 1 out of 4 animals
Methane emissions [7]; 182 mg/d, fourth animal
  methane emission compared to control animals: approximately 50%
Methane emissions [7]; 208 mg/d (MED + 156), period 2
  CH4: -0.3 ± 0.5 g/day
  CO2: 5011 ± 377 g/day
  H2: 17.2 ± 3.5 g/day
Methane emissions [7]; 208 mg/d or more
  methane inhibition: full methane inhibition
Methane emissions [7]; [8]
  CH4: -0.2 ± 0.3 g/day
  CO2: 5159 ± 308 g/day
  H2: 17 ± 3.4 g/day
Methane emissions [7]; Baleage, 156 mg/d
  CH4: 59.1 g/day
  CO2: 5251 g/day
  H2: 7.4 g/day
Methane emissions [7]; Baleage, 182 mg/d
  CH4: 0.9 g/day
  CO2: 5202 g/day
  H2: 13.3 g/day
Methane emissions [7]; Baleage, 208 mg/d
  CH4: -1.0 g/day
  CO2: 4919 g/day
  H2: 19.9 g/day
Methane emissions [7]; Baleage, 260 mg/d
  CH4: 0.3 g/day
  CO2: 4645 g/day
  H2: 12.7 g/day
Methane emissions [7]; Pasture, 156 mg/d
  CH4: 38.2 g/day
  CO2: 6081 g/day
  H2: 8.4 g/day
Methane emissions [7]; Pasture, 182 mg/d
  CH4: 36.2 g/day
  CO2: 5977 g/day
  H2: 14.1 g/day
Methane emissions [7]; Pasture, 208 mg/d
  CH4: 0.3 g/day
  CO2: 5104 g/day
  H2: 14.4 g/day
Methane emissions [7]; Pasture, 260 mg/d
  CH4: -0.7 g/day
  CO2: 5673 g/day
  H2: 21.3 g/day
Methane emissions [7]; cattle, about 378 kg
  effective minimal daily dose: 0.28 to 0.4 mg/kg/day
  minimum dose for an effective mitigation of methanogenesis: 104 to 156 mg/day
Methane emissions [7]; dose range of 0-104 mg/day, chamber session 1 (data not shown)
  methane inhibition: no substantial methane inhibition
Methane emissions [7]; doses equal to and greater than 156 mg/d
  methane inhibition, animals responding: 15 out of 16 animals
